# According to ChEMBL document CHEMBL4819085, “Dipyridyl-substituted thiosemicarbazone as a potent broad-spectrum inhibitor of metallo-β-lactamases” (Bioorg Med Chem, 2021):
# Activity calls are given as the source filed them. The rule behind the calls is not given here.
# Key:
# [1] = test system: Bacteria; assay: Reversible inhibition of bacterial NDM-1 assessed as residual activity at 50 uM incubated for 6 hrs by dialysis method relative to control
# [2] = test system: Bacteria; assay: Inhibition of bacterial NDM-1 expressed in Escherichia coli BL21 (DE3) at 20 uM using meropenem as substrate incubated for 1 hr by spectrometry analysis relative to control
# [3] = test system: Bacteria; assay: Inhibition of bacterial VIM-2 expressed in Escherichia coli BL21 (DE3) at 20 uM using meropenem as substrate incubated for 1 hr by spectrometry analysis relative to control
# [4] = test system: Bacteria; assay: Inhibition of bacterial IMP-1 at 20 uM using meropenem as substrate incubated for 1 hr by spectrometry analysis relative to control
# [5] = test system: Bacteria; assay: Inhibition of bacterial L1 at 20 uM using meropenem as substrate incubated for 1 hr by spectrometry analysis relative to control
# [6] = (§1) Inhibition of bacterial NDM-1 expressed in Escherichia coli BL21 (DE3) using meropenem as substrate incubated for 1 hr by spectrometry analysis; parameters: species or system Bacteria
# [7] = test system: Bacteria; assay: as §1
# [8] = (§2) Inhibition of bacterial VIM-2 expressed in Escherichia coli BL21 (DE3) using meropenem as substrate incubated for 1 hr by spectrometry analysis; parameters: species or system Bacteria
# [9] = test system: Bacteria; assay: as §2
# [10] = (§3) Inhibition of bacterial IMP-1 using meropenem as substrate incubated for 1 hr by spectrometry analysis; parameters: species or system Bacteria
# [11] = test system: Bacteria; assay: as §3
# [12] = (§4) Inhibition of bacterial L1 using meropenem as substrate incubated for 1 hr by spectrometry analysis; parameters: species or system Bacteria
# [13] = test system: Bacteria; assay: as §4
# [14] = biological target: Metallo-beta-lactamase type 2 (Klebsiella pneumoniae, UniProt C7C422); assay: Inhibition of NDM-1 in Klebsiella pneumoniae using meropenem as substrate incubated for 0.5 hrs
# [15] = test system: Bacteria; assay: Reversible inhibition of bacterial NDM-1 assessed as enzyme activity at 50 uM incubated for 6 hrs by ICP-MS analysis
# [16] = Competitive inhibition of bacterial NDM-1 expressed in Escherichia coli BL21 (DE3) using meropenem as substrate incubated for 1 hr by Lineweaver-Burk plot analysis; parameters: species or system Bacteria
# [17] = test system: Enterococcus faecium; assay: Antibacterial activity against vancomycin-resistant Enterococcus faecium assessed as reduction in bacterial growth incubated for 24 hrs by broth microdilution method; assay type: functional
# [18] = test system: Escherichia coli; assay: Antibacterial activity against Escherichia coli 01 assessed as reduction in bacterial growth incubated for 24 hrs by broth microdilution method; assay type: functional
# [19] = test system: Escherichia coli; assay: Antibacterial activity against Escherichia coli 04 assessed as reduction in bacterial growth incubated for 24 hrs by broth microdilution method; assay type: functional
# [20] = test system: Escherichia coli; assay: Antibacterial activity against Escherichia coli 06 assessed as reduction in bacterial growth incubated for 24 hrs by broth microdilution method; assay type: functional
# [21] = test system: Escherichia coli; assay: Antibacterial activity against Escherichia coli 08 assessed as reduction in bacterial growth incubated for 24 hrs by broth microdilution method; assay type: functional
# [22] = test system: Klebsiella pneumoniae; assay: Antibacterial activity against Klebsiella pneumoniae assessed as reduction in bacterial growth incubated for 24 hrs by broth microdilution method; assay type: functional
# [23] = test system: Escherichia coli; assay: Potentiation of meropenem-induced antibacterial activity against Escherichia coli 08 assessed as meropenem MIC incubated for 24 hrs by broth microdilution method; assay type: functional
# [24] = test system: Klebsiella pneumoniae; assay: Potentiation of meropenem-induced antibacterial activity against Klebsiella pneumoniae assessed as meropenem MIC incubated for 24 hrs by broth microdilution method; assay type: functional
# [25] = test system: Escherichia coli; assay: Inhibition of Escherichia coli NDM-1 assessed as potentiation of meropenem-induced antibacterial activity by measuring meropenem MIC incubated for 24 hrs by broth microdilution method
# [26] = biological target: Metallo-beta-lactamase (Escherichia coli) (UniProt Q5U7L7); assay: Inhibition of Escherichia coli VIM-2 assessed as potentiation of meropenem-induced antibacterial activity by measuring meropenem MIC incubated for 24 hrs by broth microdilution method
# [27] = test system: Escherichia coli; assay: Inhibition of Escherichia coli IMP-1 assessed as potentiation of meropenem-induced antibacterial activity by measuring meropenem MIC incubated for 24 hrs by broth microdilution method
# [28] = test system: Escherichia coli; assay: Inhibition of Escherichia coli ImiS assessed as potentiation of meropenem-induced antibacterial activity by measuring meropenem MIC incubated for 24 hrs by broth microdilution method
# [29] = test system: Escherichia coli; assay: Antibacterial activity against Escherichia coli producing VIM-2 assessed as fractional inhibitory concentration index incubated for 24 hrs in presence of meropenem by checkerboard assay; assay type: functional
# [30] = test system: Escherichia coli; assay: Antibacterial activity against Escherichia coli producing ImiS assessed as fractional inhibitory concentration index incubated for 24 hrs in presence of meropenem by checkerboard assay; assay type: functional
# [31] = test system: Escherichia coli; assay: Antibacterial activity against Escherichia coli producing L1 assessed as fractional inhibitory concentration index incubated for 24 hrs in presence of meropenem by checkerboard assay; assay type: functional, organism-based
# [32] = test system: Escherichia coli; assay: Bactericidal activity against Escherichia coli producing NDM-1 assessed as reduction in bacterial viability at 4 ug/ml in presence of meropenem incubated for 12 hrs by time kill assay; assay type: functional, organism-based; conditions: dose 4.0 µg/ml
# [33] = test system: Escherichia coli; assay: Inhibition of Escherichia coli NDM-1 assessed as bacterial growth rate in presence of ZnCl2 relative to control; parameters: scale not given: the % may be the effect or the level left
# [34] = Cytotoxicity against African green monkey Vero E6 cells assessed as cell viability at 50 uM relative to control; assay type: cell-based, Vero C1008; conditions: chlorocebus sabaeus, read-out: Activity
# [35] = test system: Klebsiella pneumoniae; assay: In vivo antibacterial activity against Klebsiella pneumoniae producing NDM-1 infected in mouse assessed as reduction in bacterial load in spleen at 2 mg/kg, ip; assay type: functional, organism-based
# [36] = test system: Klebsiella pneumoniae; assay: In vivo antibacterial activity against Klebsiella pneumoniae producing NDM-1 infected in mouse assessed as reduction in bacterial load in liver at 2 mg/kg, ip in presence of meropenem; assay type: functional, organism-based
# [37] = test system: Klebsiella pneumoniae; assay: In vivo antibacterial activity against Klebsiella pneumoniae producing NDM-1 infected in mouse assessed as reduction in bacterial load in spleen at 2 mg/kg, ip in presence of meropenem; assay type: functional, organism-based
# [38] = Binding affinity to Zn2+ ion assessed as UV absorption peak at 435 nm at 50 uM incubated for 5 mins in presence of ZnCl2 by spectrometry analysis
# [39] = test system: Escherichia coli; assay: Potentiation of meropenem-induced antibacterial activity against Escherichia coli 24 assessed as fold reduction in meropenem MIC incubated for 24 hrs by broth microdilution method relative to meropenem alone; assay type: functional
# [40] = test system: Escherichia coli; assay: Synergistic antibacterial activity against Escherichia coli at 16 ug/ml in presence of meropenem; assay type: functional, organism-based; conditions: dose 16.0 µg/ml
# [41] = test system: Escherichia coli; assay: Inhibition of Escherichia coli NDM-1 assessed as synergistic antibacterial activity at 4 ug/ml in presence of meropenem; conditions: dose 4.0 µg/ml
# [42] = test system: Escherichia coli; assay: Inhibition of Escherichia coli NDM-1 assessed as potentiation of meropenem-induced antibacterial activity by measuring fold reduction in meropenem MIC up to 8 ug/ml incubated for 24 hrs by broth microdilution method relative to meropenem alone; conditions: dose microg/ml <=8, time 24.0 hrs
# [43] = biological target: Metallo-beta-lactamase (Escherichia coli) (UniProt Q5U7L7); assay: Inhibition of Escherichia coli VIM-2 assessed as potentiation of meropenem-induced antibacterial activity by measuring fold reduction in meropenem MIC up to 8 ug/ml incubated for 24 hrs by broth microdilution method relative to meropenem alone; conditions: dose microg/ml <=8, time 24.0 hrs
# [44] = test system: Escherichia coli; assay: Inhibition of Escherichia coli ImiS assessed as potentiation of meropenem-induced antibacterial activity by measuring fold reduction in meropenem MIC up to 8 ug/ml incubated for 24 hrs by broth microdilution method relative to meropenem alone; conditions: dose microg/ml <=8, time 24.0 hrs
# Chain of Metallo-beta-lactamase type 2 (C7C422 whole entry): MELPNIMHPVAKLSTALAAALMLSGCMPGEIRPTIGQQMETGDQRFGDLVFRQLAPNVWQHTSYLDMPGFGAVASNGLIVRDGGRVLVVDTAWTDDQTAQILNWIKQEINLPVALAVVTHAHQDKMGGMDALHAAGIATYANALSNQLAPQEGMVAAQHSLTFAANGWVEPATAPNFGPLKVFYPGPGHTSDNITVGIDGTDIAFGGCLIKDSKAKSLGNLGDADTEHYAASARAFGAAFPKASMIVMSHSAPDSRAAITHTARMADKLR
compound,measurement,setting,value
CN(C(=S)NN=C(c1ccccn1)c1ccccn1)C1CCCCC1,Activity,[1],70%
same,inhibition,[2],> 90%
same,inhibition,[3],> 90%
same,inhibition,[4],> 90%
same,inhibition,[5],> 90%
same,IC50,[6],21 nM
same,inhibition,[7],Dose-Dependent Effect
same,IC50,[8],110 nM
same,inhibition,[9],Dose-Dependent Effect
same,IC50,[10],280 nM
same,inhibition,[11],Dose-Dependent Effect
same,IC50,[12],1080 nM
same,inhibition,[13],Dose-Dependent Effect
same,IC50,[14],13.6 µM
same,inhibition,[15],Active
same,Ki,[16],10.2 nM
same,MIC,[17],16 µg/mL
same,MIC,[18],16 µg/mL
same,MIC,[19],16 µg/mL
same,MIC,[20],16 µg/mL
same,MIC,[21],16 µg/mL
same,MIC,[22],32 µg/mL
same,MIC,[23],32 µg/mL
same,MIC,[24],32 µg/mL
same,MIC,[25],8 µg/mL
same,MIC,[26],8 µg/mL
same,MIC,[27],16 µg/mL
same,MIC,[28],4 µg/mL
same,FIC,[29],0.313
same,FIC,[30],0.313
same,Activity,[31],inactive
same,inhibition,[32],Active
same,Activity,[33],90%
same,viability at 50 µM,[34],> 70%
same,inhibition,[35],inactive
same,inhibition,[36],Active
same,inhibition,[37],Active
same,Activity,[38],Active
same,fold change (FC),[39],2
same,Activity,[40],Active
same,inhibition,[41],Active
same,fold change (FC),[42],256
same,fold change (FC),[43],32
same,fold change (FC),[44],64
